Reference: US9193731B2, “Antimicrobial compounds and methods of making and using the same” (Melinta Therapeutics, Inc., priority 2009, dated 2015)

What follows are compounds tested on Escherichia coli strain ATCC25922 (assay: standard microdilution assay to determine minimum inhibitory concentrations (MICs)). Details: Escherichia coli strain ATCC25922, microdilution.
Assay type: cell-based
Procedure, shortened: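 E. coli strain ATCC25922 tested per CLSI microdilution methodology (about 100 microliters per well) to find minimum inhibitory concentrations. Activity scored categorically at a 16 micrograms/ml threshold.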
In the case of `NC(N)=NCCC(=O)NCc1ccc(-n2cc3cc(-c4ccc(S(=O)(=O)N(Cc5ccccc5SC(F)(F)F)C5CCNCC5)cc4)[nH]c3nc2=O)cc1` [Compound 1205], the “E. coli ATCC25922 MIC” value is reported as “− (a “−” indicates that the compound has an MIC value greater than 16 micrograms/ml)”. For `N=C(N)N[C@@H]1CCN(Cc2ccc(-n3cc4cc(-c5ccc(S(=O)(=O)N(CC6CCOCC6)C6CCNCC6)cc5)[nH]c4nc3=O)cc2)C1` [Compound 1206], the “E. coli ATCC25922 MIC” value was “− (a “−” indicates that the compound has an MIC value greater than 16 micrograms/ml)”. In the case of `CN1CCN(CCCN(C2CCNCC2)S(=O)(=O)c2ccc(-c3cc4cn(-c5ccc(CN6CC[C@@H](NC(=N)N)C6)cc5)c(=O)nc4[nH]3)cc2)CC1` [Compound 1207], the “E. coli ATCC25922 MIC” value is reported as “− (a “−” indicates that the compound has an MIC value greater than 16 micrograms/ml)”. In the case of `NC(N)=NCCCNCc1ccc(-n2cc3cc(-c4cccc(S(=O)(=O)N(CCc5ccc(O)cc5)C5CCNCC5)c4)[nH]c3nc2=O)cc1` [Compound 1214], the “E. coli ATCC25922 MIC” value is reported as “+ (a “+” indicates that the compound has an MIC value of 16 micrograms/ml or less)”. With `N=C(N)CCCOc1cccc(-c2cc3cn(-c4ccc(CNCCCNC(=N)N)cc4)c(=O)nc3[nH]2)c1` [Compound 1217] the “E. coli ATCC25922 MIC” value was “+ (a “+” indicates that the compound has an MIC value of 16 micrograms/ml or less)”. `CC(C)(C)NCC(=O)Nc1ccc(-c2cc3cn(-c4ccc(CNCCCN=C(N)N)cc4)c(=O)nc3[nH]2)cc1` [Compound 1218] was tested, and the “E. coli ATCC25922 MIC” value was “+ (a “+” indicates that the compound has an MIC value of 16 micrograms/ml or less)”. With `N=C(N)N[C@@H]1CCN(Cc2ccc(-n3cc4cc(-c5ccc(S(=O)(=O)N(CCCn6cnnc6)C6CCNCC6)cc5)[nH]c4nc3=O)cc2)C1` [Compound 1219] the “E. coli ATCC25922 MIC” value was “− (a “−” indicates that the compound has an MIC value greater than 16 micrograms/ml)”. In the case of `NC1CCN(Cc2ccc(-n3cc4cc(-c5ccc(S(=O)(=O)N(CCCn6cnnc6)C6CCNCC6)cc5)[nH]c4nc3=O)cc2)C1` (stereo not shown) [Compound 1220], the “E. coli ATCC25922 MIC” value is reported as “− (a “−” indicates that the compound has an MIC value greater than 16 micrograms/ml)”. `N=C(N)N[C@@H]1CCN(Cc2ccc(-n3cc4cc(-c5ccc(S(=O)(=O)N(CCCN6CCS(=O)(=O)CC6)C6CCNCC6)cc5)[nH]c4nc3=O)cc2)C1` [Compound 1222] was tested, and the “E. coli ATCC25922 MIC” value was “− (a “−” indicates that the compound has an MIC value greater than 16 micrograms/ml)”. For `COc1ccc(CCN(C2CCNCC2)S(=O)(=O)c2cccc(-c3cc4cn(-c5ccc(CNCCCN=C(N)N)cc5)c(=O)nc4[nH]3)c2)cc1` [Compound 1226], the “E. coli ATCC25922 MIC” value was “+ (a “+” indicates that the compound has an MIC value of 16 micrograms/ml or less)”. In the case of `NC(N)=NCCCNCc1ccc(-n2cc3cc(-c4cccc(S(=O)(=O)N(CCn5cccc5)C5CCNCC5)c4)[nH]c3nc2=O)cc1` [Compound 1227], the “E. coli ATCC25922 MIC” value is reported as “+ (a “+” indicates that the compound has an MIC value of 16 micrograms/ml or less)”. With `N=C(N)NC[C@H](N)C(=O)NCc1ccc(-n2cc3cc(-c4ccc(S(=O)(=O)NC5CCNCC5)cc4)[nH]c3nc2=O)cc1` [Compound 1228] the “E. coli ATCC25922 MIC” value was “+ (a “+” indicates that the compound has an MIC value of 16 micrograms/ml or less)”. With `NCCCNC(=O)c1ccc(-n2cc3cc(-c4ccc(S(=O)(=O)NC5CCNCC5)cc4)[nH]c3nc2=O)cc1OCC1CCNCC1` [Compound 1241] the “E. coli ATCC25922 MIC” value was “− (a “−” indicates that the compound has an MIC value greater than 16 micrograms/ml)”. `NC(N)=NCCCNCc1ccc(-n2cc3cc(-c4ccc(S(=O)(=O)NC5CCNCC5)cc4)oc3nc2=O)cc1` [Compound 1242] was tested, and the “E. coli ATCC25922 MIC” value was “+ (a “+” indicates that the compound has an MIC value of 16 micrograms/ml or less)”. With `CC(=O)NCCN(C1CCNCC1)S(=O)(=O)c1cccc(-c2cc3cn(-c4ccc(CNCCCN=C(N)N)cc4)c(=O)nc3[nH]2)c1` [Compound 1243] the “E. coli ATCC25922 MIC” value was “+ (a “+” indicates that the compound has an MIC value of 16 micrograms/ml or less)”. With `COc1ccc(NCCCS(=O)(=O)c2ccc(-c3cc4cn(-c5ccc(CNCCCN=C(N)N)cc5)c(=O)nc4[nH]3)cc2)cc1` [Compound 1250] the “E. coli ATCC25922 MIC” value was “− (a “−” indicates that the compound has an MIC value greater than 16 micrograms/ml)”. With `NC(N)=NCCCNCc1ccc(-n2cc3cc(CCS(=O)(=O)CCNC4CCNCC4)[nH]c3nc2=O)cc1` [Compound 1251] the “E. coli ATCC25922 MIC” value was “+ (a “+” indicates that the compound has an MIC value of 16 micrograms/ml or less)”. `N=C(N)NCCCNCc1ccc(-n2cc3cc(-c4cccc(S(=O)(=O)N(CCC(N)=O)C5CCNCC5)c4)[nH]c3nc2=O)cc1` [Compound 1259] was tested, and the “E. coli ATCC25922 MIC” value was “+ (a “+” indicates that the compound has an MIC value of 16 micrograms/ml or less)”. For `COc1ccc(NCCCS(=O)(=O)c2ccc(-c3cc4cn(-c5ccc(C(=O)NCCCNC(=N)N)cc5)c(=O)nc4[nH]3)cc2)cc1` [Compound 1260], the “E. coli ATCC25922 MIC” value was “− (a “−” indicates that the compound has an MIC value greater than 16 micrograms/ml)”. `N=C(N)NCCCNC(=O)c1ccc(-n2cc3cc(-c4ccc(S(=O)(=O)CCCNC5CCNCC5)cc4)[nH]c3nc2=O)cc1` [Compound 1261] was tested, and the “E. coli ATCC25922 MIC” value was “+ (a “+” indicates that the compound has an MIC value of 16 micrograms/ml or less)”. For `N=C(N)NCCCNCc1ccc(-n2cc3cc(-c4cccc(S(=O)(=O)N(CCn5nccc5N)C5CCNCC5)c4)[nH]c3nc2=O)cc1` [Compound 1262], the “E. coli ATCC25922 MIC” value was “− (a “−” indicates that the compound has an MIC value greater than 16 micrograms/ml)”. `N=C(N)NCCCNC(=O)c1ccc(-n2cc3cc(-c4ccc(S(=O)(=O)NC5CNC5)cc4)[nH]c3nc2=O)cc1` [Compound 1268] was tested, and the “E. coli ATCC25922 MIC” value was “+ (a “+” indicates that the compound has an MIC value of 16 micrograms/ml or less)”.

Same assay, conditions: Escherichia coli, ATCC25922, Escherichia coli strain ATCC25922, microdilution; read-out: E. coli ATCC25922 MIC
For `CN(CCCOc1cccc(-c2cc3cn(-c4ccc(CNCCCNC(=N)N)cc4)c(=O)nc3[nH]2)c1)C(=O)c1ccccc1` [Compound 1204], the MIC was greater than 16 µg/mL. Work on `O=c1nc2[nH]c(-c3ccc(S(=O)(=O)NC4CCNCC4)cc3)cc2cn1-c1ccccc1O` [Compound 1208] yielded an MIC greater than 16 µg/mL. `CCOCCn1cc(CCNO)c2ccc(-n3cc4cc(CCS(=O)(=O)NC5CCNCC5)[nH]c4nc3=O)cc21` [Compound 1209] gave an MIC greater than 16 µg/mL. In the case of `N=C(N)NCCCNCc1ccc(-n2cc3cc(C4CCCNC4)[nH]c3nc2=O)cc1` (stereo not shown) [Compound 1210], the MIC is reported as less than 16 µg/mL. Compound `N=C(N)NCCCNCc1ccc(-n2cc3cc(C4CCCN(C(=N)N)C4)[nH]c3nc2=O)cc1` (stereo not shown) [Compound 1211] has an MIC of less than 16 µg/mL. `COc1ccc(CCN(C2CCNCC2)S(=O)(=O)c2cccc(-c3cc4cn(-c5ccc(CN)cc5)c(=O)nc4[nH]3)c2)cc1` [Compound 1215] gave an MIC greater than 16 µg/mL. With `N=C(N)CCCOc1cccc(-c2cc3cn(-c4ccc(CNCCCN)cc4)c(=O)nc3[nH]2)c1` [Compound 1216] the MIC was less than 16 µg/mL. In the case of `CNCCCOc1cccc(-c2cc3cn(-c4ccc(CNCCCNC(=N)N)cc4)c(=O)nc3[nH]2)c1` [Compound 1221], the MIC is reported as less than 16 µg/mL. With `O=C1CC[C@@H](COc2cccc(-n3cc4cc(-c5ccc(S(=O)(=O)NC6CCNCC6)cc5)[nH]c4nc3=O)c2)N1` [Compound 1223] the MIC was greater than 16 µg/mL. With `CC(=O)NCCN(C1CCNCC1)S(=O)(=O)c1cccc(-c2cc3cn(-c4ccc(CN)cc4)c(=O)nc3[nH]2)c1` [Compound 1224] the MIC was greater than 16 µg/mL. Work on `NCc1ccc(-n2cc3cc(-c4cccc(S(=O)(=O)N(CCCc5cn[nH]c5)C5CCNCC5)c4)[nH]c3nc2=O)cc1` [Compound 1225] yielded an MIC greater than 16 µg/mL. `N=C(N)NCCCNCc1ccc(-n2cc3cc(C4CCNC4)[nH]c3nc2=O)cc1` (stereo not shown) [Compound 1229] was tested, and the MIC was less than 16 µg/mL. `N=C(N)NCCCNCc1ccc(-n2cc3cc(C4CCN(C(=N)N)C4)[nH]c3nc2=O)cc1` (stereo not shown) [Compound 1230] showed an MIC of less than 16 µg/mL. In the case of `N=C(N)NCCCNCc1ccc(-n2cc3cc(C[C@@H](CO)NC(=O)c4ccccc4)[nH]c3nc2=O)cc1` [Compound 1231], the MIC is reported as greater than 16 µg/mL. For `NCc1ccc(-n2cc3cc(-c4cccc(CN5CCNCC5)c4)[nH]c3nc2=O)cc1` [Compound 1232], the MIC was greater than 16 µg/mL. For `N=C(N)NCCCNCc1ccc(-n2cc3cc(-c4cccc(CN5CCNCC5)c4)[nH]c3nc2=O)cc1` [Compound 1233], the MIC was less than 16 µg/mL. Compound `NCCc1cn(CCCCO)c2cc(-n3cc4cc(CCS(=O)(=O)C5CCNCC5)[nH]c4nc3=O)ccc12` [Compound 1239] has an MIC greater than 16 µg/mL. Compound `N=C(N)NCCCNCc1ccc(-n2cc3cc(CCS(=O)(=O)C4CCNCC4)[nH]c3nc2=O)cc1` [Compound 1240] has an MIC of less than 16 µg/mL. `N=C(N)NCCCNCc1ccc(-n2cc3cc(C4C[C@@H](N)[C@@H](CO)O4)[nH]c3nc2=O)cc1` (stereo partly shown) [Compound 1245] showed an MIC of less than 16 µg/mL. `NCCCNCc1ccc(-n2cc3cc(C4C[C@@H](N)[C@@H](CO)O4)[nH]c3nc2=O)cc1` (stereo partly shown) [Compound 1246] was tested, and the MIC was less than 16 µg/mL. Compound `NCc1ccc(-n2cc3cc(-c4cccc(S(=O)(=O)N(CCn5nccc5N)C5CCNCC5)c4)[nH]c3nc2=O)cc1` [Compound 1248] has an MIC greater than 16 µg/mL. Work on `NCc1ccc(-n2cc3cc(-c4cccc(S(=O)(=O)N(CCC(N)=O)C5CCNCC5)c4)[nH]c3nc2=O)cc1` [Compound 1249] yielded an MIC greater than 16 µg/mL. `NC(=O)COc1cccc(-n2cc3cc(-c4ccc(S(=O)(=O)NC5CCNCC5)cc4)[nH]c3nc2=O)c1` [Compound 1253] gave an MIC greater than 16 µg/mL. With `N=C(N)NCCCNC(=O)c1ccc(-n2cc3cc(-c4cccc(OCCCN)c4)[nH]c3nc2=O)cc1` [Compound 1255] the MIC was less than 16 µg/mL. `N=C(N)NCCCNC(=O)c1ccc(-n2cc3cc(C4CCCN(C(=N)N)C4)[nH]c3nc2=O)cc1` (stereo not shown) [Compound 1256] gave an MIC of less than 16 µg/mL. For `N=C(N)NCCCNC(=O)c1ccc(-n2cc3cc(C4CCCNC4)[nH]c3nc2=O)cc1` (stereo not shown) [Compound 1257], the MIC was greater than 16 µg/mL. Compound `CCCCn1cc(CCN)c2ccc(-n3cc4cc(CCS(=O)(=O)C5CCNCC5)[nH]c4nc3=O)cc21` [Compound 1258] has an MIC greater than 16 µg/mL. For `N=C(N)NCCCNCc1ccc(-n2cc3cc(-c4cccc(OCCCN)c4)[nH]c3nc2=O)cc1F` [Compound 1263], the MIC was less than 16 µg/mL. With `N=C(N)NCCCNCc1ccc(-n2cc3cc([C@H]4C[C@@H](N)[C@@H](CO)O4)[nH]c3nc2=O)cc1` [Compound 1266] the MIC was less than 16 µg/mL. `N=C(N)NCCCNCc1ccc(-n2cc3cc([C@@H]4C[C@@H](N)[C@@H](CO)O4)[nH]c3nc2=O)cc1` [Compound 1267] showed an MIC of less than 16 µg/mL.
